Reference: patent US20060189663A1, “Pyrrole-2,5-dithione derivatives as liver x receptor modulators” (AstraZeneca AB, priority 2003, published 2006)

Test system: T1, LXRalpha and/or beta
T1 construct: fused on or other part: His-tag (6xHis) on the LXR-LBD
Experiment: Co-activator recruitment assay (time-resolved fluorescence, LXR-LBD / SRC-1 peptide)
Format: biochemical, human
Conditions: LXR isoform (alpha or beta) not stated; 22-R Hydroxycholesterol at 50 μM as 100% control; read-out: EC50 in coactivator recruitment assays
Excerpt: Co-Activator Recruitment Assay The Ligand Binding Domain (LBD) of human LXRalpha (amino acid 205-447) and LXRbeta (amino acid 216-461) was produced by recombinant techniques in E coli. A fragment of the human Steroid Receptor Co-Activator-1 (SRC-1) was produced as a synthetic peptide. An anti-6His-antibody coupled with Europium (Eu^3+) was used to recognize the His-tag on the LXR-LBD and Allophycocyanin (APC) coupled to streptavidin was used to recognize the biotinylated SRC-1. Agonist binding to LXRalpha or LXRbeta enhances the affinity of LXR towards SRC-1 and thereby brings Eu^3+ and APC in close proximity. Eu^3+ is excited at 337 nm and emitts light at 620 nm. This emission, when in close proximity, excites APC to emit light at 665 nm.
Dilution plates with compounds in DMSO were further diluted in buffer {20 mM [Tris(hydroxymethyl)aminomethane] pH 7.5, 0.125% CHAPS {3-[(3-Cholamidopropyl)dimethylammonio]-1-propanesulfonate}, 2 mM DTT (Dithiothreitol) and 0.05% BSA (Bovine Serum Albumin)} in order to reduce DMSO concentration, 0.5 μl to 13.5 μl. To this, 6 μl assay mix was added and the plates (384-well V-groove plates) were incubated at room temperature for 60 to 80 min. […] Time-resolved fluorescence readings were done in a Wallac Victor reader at 665 nm followed by reading at 615 nm. […]

| EC50 [nM] | Structure (SMILES) |
| --- | --- |
| 90 | CCCCN1C(=O)C(c2ccccc2)=C(Nc2ccc(OC)cc2)C1=S [Example 7, 1-Butyl-4-[(4-methoxyphenyl)amino]-3-phenyl-5-thioxo-1,5-dihydro-2H-pyrrol-2-one] |
| 140 | Nc1ccc(CN2C(=S)C(Nc3ccc(OC(F)F)cc3)=C(c3ccccc3)C2=S)cn1 [Example 18, 1-[(6-Aminopyridin-3-yl)methyl]-3-{[4-(difluoromethoxy)phenyl]amino}-4-phenyl-1H-pyrrole-2,5-dithione] |
